Earlier results, collected in patent publication US8426341B2, “Herbicide formulation” (priority 2005, dated 2013).

Settings: acid form / neutral form equilibrium; exemplary values

| Compound | pKas (single or first listed value) |
| --- | --- |
| CC(Oc1ccc(Oc2ncc(C(F)(F)F)cc2Cl)cc1)C(=O)O (centres unmarked) [Haloxyfop] | 2.9 |
| CC(C)N1C(=O)c2ccccc2NS1(=O)=O [Bentazon] | 3.30 |
| O=C(O)COc1nc(Cl)c(Cl)cc1Cl [Triclopyr, 3,5,6-trichloro-2-pyridyloxyacetic acid] | 2.68 |
| O=C(O)c1cc(Oc2ccc(C(F)(F)F)cc2Cl)ccc1[N+](=O)[O-] [Acifluorfen] | 3.86 |
| C[C@@H](Oc1ccc(Oc2ccc(C(F)(F)F)cn2)cc1)C(=O)O [Fluazifop-p] | 2.98 |
| COc1c(Cl)ccc(Cl)c1C(=O)O [Dicamba, 3,6-dichloro-O-anisic acid] | 1.87 |
| C[C@@H](Oc1ccc(Oc2cnc3cc(Cl)ccc3n2)cc1)C(=O)O [Quizalofop-p] | 1.25 |
| O=C(O)c1c(Cl)ccc2cc(Cl)cnc12 [Quinclorac] | 4.34 |
| Imazamethbenz | 2.9 |
| Nc1c(Cl)c(Cl)nc(C(=O)O)c1Cl [Picloram] | 2.3 |
| CC(Oc1ccc(Oc2ccc(Cl)cc2Cl)cc1)C(=O)O (centres unmarked) [Diclofop] | 3.57 |
| CC(C)C1(C)N=C(c2nc3ccccc3cc2C(=O)O)NC1=O (centres unmarked) [Imazaquin] | 3.8 |
| O=C(O)CCCOc1ccc(Cl)cc1Cl [2,4-DB] | 4.8 |
| CP(=O)(O)CCC(N)C(=O)O (centres unmarked) [Glufosinate] | 2 |
| N#Cc1cc(Br)c(O)c(Br)c1 [Bromoxynil] | 4.06 |

Same assay, conditions: second value for compounds with more than one acidic hydrogen

| Compound | pKas (second listed value) |
| --- | --- |
| O=C(O)COc1nc(Cl)c(Cl)cc1Cl [Triclopyr, 3,5,6-trichloro-2-pyridyloxyacetic acid] | 3.97 |
| CP(=O)(O)CCC(N)C(=O)O (centres unmarked) [Glufosinate] | 2.9 |
